# Data as given in patent US5811421A, “Naphthyl and dihydronaphthyl intermediates, compounds, compositions, and methods” (Eli Lilly and Company, priority 1996, dated 1998).
# pIC50: −log10 of the molar value. Counter-ions that a name gives are not always drawn.
# Experiments:
# [1] = system: proximal tibiae metaphysis (bone mineral density) of ovariectomized rats; assay: Osteoporosis Test Procedure: protection against bone loss in ovariectomized rats, 35 days; format: in vivo; settings: oral; for Tibia BMD pQCT (% protection): OVX rats
# Description: Seventy-five day old female Sprague Dawley rats (weight range of 200 to 225g) were obtained from Charles River Laboratories (Portage, MI). The animals were either bilaterally ovariectomized (OVX) or exposed to a Sham surgical procedure at Charles River Laboratories, and then shipped after one week. Upon arrival, they were housed in metal hanging cages in groups of 3 or 4 per cage and had ad libitum access to food (calcium content approximately 0.5%) and water for one week. Room temperature was maintained at 22.2°±1.7° C. with a minimum relative humidity of 40%. The photoperiod in the room was 12 hours light and 12 hours dark. Following the General Preparation Procedure, infra, the rats were treated daily for 35 days (6 rats per treatment group) and sacrificed by carbon dioxide asphyxiation on the 36th day. The 35 day time period was sufficient to allow maximal reduction in bone density, measured as described herein. At the time of sacrifice, the uteri were removed, dissected free of extraneous tissue, and the fluid contents were expelled before determination of wet weight in order to confirm estrogen deficiency associated with complete ovariectomy. […] The uteri were then placed in 10% neutral buffered formalin to allow for subsequent histological analysis. The right femurs were excised and digitilized x-rays generated and analyzed by an image analysis program (NIH image) at the distal metaphysis. The proximal aspect of the tibiae from these animals were also scanned by quantitative computed tomography. In accordance with the above procedures, compounds of the present invention and ethynyl estradiol (EE2) in 20% hydroxypropyl β-cyclodextrin were orally administered to test animals. Proximal tibiae metaphysis data presented in Table 2 are the results of formula I compound treatments compared to intact and ovariectomized test animals. Results are reported as percent protection against bone loss which was calculated for individual animals by the following formula: % protection=(BMDtest BMDovx)/(BMDsham -BMDovx)×100.
# [2] = system: Uterine Eosinophil Peroxidase (EPO); assay: Uterine Eosinophil Peroxidase (EPO) Assay / eosinophil infiltration into the uterus of ovariectomized rats; format: in vivo, female Sprague Dawley rats; set-up: Uterine EPO (V. max): unit not given here; settings: for Uterine EPO (V. max): OVX rats, oral
# Experimental: (§1) In the examples illustrating the methods of the present invention, a post-menopausal model was used in which effects of different treatments upon circulating lipids were determined.
# (§2) Seventy-five day old female Sprague Dawley rats (weight range of 200 to 225g) were obtained from Charles River Laboratories (Portage, MI). The animals were either bilaterally ovariectomized (OVX) or exposed to a Sham surgical procedure at Charles River Laboratories, and then shipped after one week. Upon arrival, they were housed in metal hanging cages in groups of 3 or 4 per cage and had ad libitum access to food (calcium content approximately 0.5%) and water for one week. Room temperature was maintained at 22.2°±1.7° C. with a minimum relative humidity of 40%. The photoperiod in the room was 12 hours light and 12 hours dark.
# (§3) Dosing Regimen Tissue Collection. After a one week acclimation period (therefore, two weeks post-OVX) daily dosing with test compound was initiated. 17α-ethynyl estradiol or the test compound were given orally, unless otherwise stated, as a suspension in 1% carboxymethylcellulose or dissolved in 20% cyclodextrin. Animals were dosed daily for 4 days. Following the dosing regimen, animals were weighed and anesthetized with a ketamine: xylazine (2:1, V:V) mixture and a blood sample was collected by cardiac puncture. The animals were then sacrificed by asphyxiation with CO2, the uterus was removed through a midline incision, and a wet uterine weight was determined.
# Uterine Eosinophil Peroxidase (EPO) Assay. Uteri were kept at 4° C. until time of enzymatic analysis. The uteri were then homogenized in 50 volumes of 50 mM Tris buffer (pH-8.0) containing 0.005% Triton X-100. Upon addition of 0.01% hydrogen peroxide and 10 mM O-phenylenediamine (final concentrations) in Tris buffer, increase in absorbance was monitored for one minute at 450 nm. The presence of eosonophils in the uterus is an indication of estrogenic activity of a compound. The maximal velocity of a 15 second interval was determined over the initial, linear portion of the reaction curve.
# As is expressed in the below data, estrogenicity also was assessed by evaluating the adverse response of eosinophil infiltration into the uterus.
# (§4) The data presented in the Tables 1 below reflects the response of 5 to 6 rats per treatment.
# serum cholesterol = assay: Serum cholesterol in ovariectomized rats, 4-day oral dosing; format: in vivo, female Sprague Dawley rats; settings: for Serum Cholesterol (% decrease vs. OVX): OVX rats
# Experimental: as §1, §2, §3
# Cholesterol Analysis. Blood samples were allowed to clot at room temperature for 2 hours, and serum was obtained following centrifugation for 10 minutes at 3000 rpm. Serum cholesterol was determined using a Boehringer Mannheim Diagnostics high performance cholesterol assay. Briefly the cholesterol was oxidized to cholest-4-en-3-one and hydrogen peroxide. The hydrogen peroxide was then reacted with phenol and 4-amino-phenazone in the presence of peroxidase to produce a p-quinone imine dye, which was read spectrophotemetrically at 500 nm. Cholesterol concentration was then calculated against a standard curve. The entire assay was automated using a Biomek Automated Workstation.
# (§5) Data presented in Table 1 below show comparative results among ovariectomized rats, rats treated with 17α-ethynyl estradiol (EE2; an orally available form of estrogen), and rats treated with certain compounds of the present invention. […] This uterine response to estrogen is well recognized in the art.
# as §4
# [3] = system: ovariectomized rats (uterus); assay: Uterine weight in ovariectomized (OVX) rats, 4-day oral dosing; format: in vivo, female Sprague Dawley rats; settings: for Uterine Weight (% increase vs. OVX): OVX rats
# Experimental: as §1, §2, §3, §5, §4
# [4] = system: MCF-7 breast adenocarcinoma cells; assay: MCF-7 Proliferation Assay; format: cell-based; settings: Homo sapiens, MCF7; MCF-7 cells, tritiated thymidine incorporation, 48 hours
# Experimental: MCF-7 Proliferation Assay MCF-7 breast adenocarcinoma cells (ATCC HTB 22) were maintained in MEM (minimal essential medium, phenol red- free, Sigma, St. Louis, Mo.) supplimented with 10% fetal bovine serum (FBS) (V/V), L-glutamine (2 mM), sodium pyruvate (1 mM), HEPES {(N-[2-hydroxyethyl]piperazine-N'-[2-ethanesulfonic acid]10 mM}, non-essential amino acids and bovine insulin (1 ug/mL) (maintenance medium). Ten days prior to assay, MCF-7 cells were switched to maintenance medium supplemented with 10% dextran coated charcoal stripped fetal bovine serum (DCC-FBS) assay medium) in place of 10% FBS to deplete internal stores of steroids. MCF-7 cells were removed from maintenance flasks using cell dissociation medium (Ca++/Mg++free HBSS (phenol red-free) supplemented with 10 mM HEPES and 2 mM EDTA). Cells were washed twice with assay medium and adjusted to 80,000 cells/mL. Approximately 100 μL (8,000 cells) were added to flat-bottom microculture wells (Costar 3596) and incubated at 37° C. in a 5% CO2 humidified incubator for 48 hours to allow for cell adherence and equilibration after transfer. Serial dilutions of drugs or DMSO as a diluent control were prepared in assay medium and 50 μL transferred to triplicate microcultures followed by 50 μL assay medium for […]. After an additional 48 hours at 37° C. in a 5% CO2 humidified incubator, microcultures were pulsed with tritiated thymidine (1 uCi/well) for 4 hours. Cultures were terminated by freezing at -70° C. for 24 hours followed by thawing and harvesting of microcultures using a Skatron Semiautomatic Cell Harvester. Samples were counted by liquid scintillation using a Wallac BetaPlace β counter. Results in Table 4 below show the IC50 for certain compounds of the present invention.
# [5] = 0.1 mg/kg daily for 35 days, values marked * (two tailed Student's T Test)
Structure (SMILES),pIC50 [4],"Tibia BMD pQCT (% protection) [1, 5]","prevention of bone loss (in words) ([1]; ovariectomized rats, 35 days)",Uterine EPO (V. max) ([2]; 0.1 mg/kg daily for 4 days),eosinophil infiltration into the uterus (in words) ([2]; stromal layer of ovariectomized rats),Serum cholesterol (in words) (serum cholesterol; 0.1 mg/kg/day),Serum Cholesterol (% decrease vs. OVX) (serum cholesterol; 0.1 mg/kg daily for 4 days),Uterine weight (in words) ([3]; 0.1 mg/kg/day),Uterine Weight (% increase vs. OVX) ([3]; 0.1 mg/kg daily for 4 days),Uterine EPO (V. max) ([2]; 1.0 mg/kg daily for 4 days),Uterine EPO (V. max) ([2]; 10.0 mg/kg daily for 4 days),Serum Cholesterol (% decrease vs. OVX) (serum cholesterol; 1.0 mg/kg daily for 4 days),Serum Cholesterol (% decrease vs. OVX) (serum cholesterol; 10.0 mg/kg daily for 4 days),Uterine Weight (% increase vs. OVX) ([3]; 1.0 mg/kg daily for 4 days),Uterine Weight (% increase vs. OVX) ([3]; 10.0 mg/kg daily for 4 days),Tibia BMD pQCT (% protection) ([1]; 0.01 mg/kg daily for 35 days),Tibia BMD pQCT (% protection) ([1]; 1.0 mg/kg daily for 35 days),"Tibia BMD pQCT (% protection) ([1]; 3.0 mg/kg daily for 35 days, value marked * (two tailed Student's T Test))"
"C#C[C@]1(O)CC[C@H]2[C@@H]3CCc4cc(O)ccc4[C@H]3CC[C@@]21C [EE2, 17α-ethynyl estradiol, reference compound]",,60.9%,prevented this loss,116.4,"substantial, expected increase in eosinophil infiltration",caused a decrease in serum cholesterol,81.4%,uterine weight was substantially greater than the uterine weight of ovariectomized test animals,86.3%,,,,,,,,,
"Oc1ccc2c(Cc3ccc(OCCN4CCCCC4)cc3)c([C@H]3CC[C@H](O)CC3)ccc2c1 [Example 2, hydrochloride]",9.00,,,4.8,,,57.8%,,32.0%,4.8,3.6,71.8%,34.9%,17.1%,6.7%,,,
"COc1ccc2c(c1)CCC(C1CCCCC1)=C2C(=O)c1ccc(OCCN2CCCCC2)cc1 [Example 4, [3,4-Dihydro-2-cyclohexyl-6-methoxynaphthalen-1-yl][4-[2-(1-piperdinyl)ethoxy]phenyl]methanone]",,,,2.1,,,65.5%,,32.0%,8.1,10.6,56.6%,58.3%,30.7%,24.2%,,,

# Continued, in another order:
pIC50 [4],Structure (SMILES),"Tibia BMD pQCT (% protection) [1, 5]","prevention of bone loss (in words) ([1]; ovariectomized rats, 35 days)",Uterine EPO (V. max) ([2]; 0.1 mg/kg daily for 4 days),eosinophil infiltration into the uterus (in words) ([2]; stromal layer of ovariectomized rats),Serum cholesterol (in words) (serum cholesterol; 0.1 mg/kg/day),Serum Cholesterol (% decrease vs. OVX) (serum cholesterol; 0.1 mg/kg daily for 4 days),Uterine weight (in words) ([3]; 0.1 mg/kg/day),Uterine Weight (% increase vs. OVX) ([3]; 0.1 mg/kg daily for 4 days),Uterine EPO (V. max) ([2]; 1.0 mg/kg daily for 4 days),Uterine EPO (V. max) ([2]; 10.0 mg/kg daily for 4 days),Serum Cholesterol (% decrease vs. OVX) (serum cholesterol; 1.0 mg/kg daily for 4 days),Serum Cholesterol (% decrease vs. OVX) (serum cholesterol; 10.0 mg/kg daily for 4 days),Uterine Weight (% increase vs. OVX) ([3]; 1.0 mg/kg daily for 4 days),Uterine Weight (% increase vs. OVX) ([3]; 10.0 mg/kg daily for 4 days),Tibia BMD pQCT (% protection) ([1]; 0.01 mg/kg daily for 35 days),Tibia BMD pQCT (% protection) ([1]; 1.0 mg/kg daily for 35 days),"Tibia BMD pQCT (% protection) ([1]; 3.0 mg/kg daily for 35 days, value marked * (two tailed Student's T Test))"
8.00,"CCc1ccc2cc(O)ccc2c1Cc1ccc(OCCN2CCCCC2)cc1 [Example 1, [2-Ethyl-6-hydroxynaphthalen-1-yl][4-[2-(1-piperdinyl)ethoxy]phenyl]methanehydrochloride]",,,6.6,,,20.3%,,-3.3%,12.0,12.0,23.1%,38.6%,3.0%,60.2%,,,
8.00,"COc1ccc2c(Cc3ccc(OCCN4CCCCC4)cc3)c(C3CCCCC3)ccc2c1 [Example 5, [2-Cyclohexyl-6-methoxynaphthalen-1-yl][4-[2-(1-piperdinyl)ethoxy]phenyl]methane]",,,21.2,,,77.6%,,21.2%,4.2,5.3,76.3%,65.8%,10.4%,6.4%,,,
9.22,"Oc1ccc2c(Cc3ccc(OCCN4CCCCC4)cc3)c(C3CCCCC3)ccc2c1 [Example 6, [2-Cyclohexyl-6-hydroxynaphthalen-1-yl][4-[2-(1-piperdinyl)ethoxy]phenyl]methane hydrochloride]",52.6%,,17.7,,,57.4%,,65.7%,4.2,4.5,46.8%,63.9%,22.8%,22.0%,23.1%,30.1%,59.6%
